From ChEMBL document CHEMBL1909498, “Secoiridoid glucosides and related compounds from Syringa reticulata and their antioxidant activities” (Bioorg Med Chem Lett, 2011)

Assays:
[1] = Antioxidant activity assessed as superoxide radical scavenging activity after 20 mins by spectrophotometric analysis; format: functional
[2] = tested on: Radical scavenging activity; experiment: Antioxidant activity assessed as DPPH radical scavenging activity after 30 mins by spectrophotometric analysis; format: functional

| SMILES | EC50 [1] | EC50 [2] |
| --- | --- | --- |
| COc1cc([C@H]2OC[C@H]3[C@@H]2CO[C@@H]3c2ccc(O[C@@H]3O[C@H](CO)[C@@H](O)[C@H](O)[C@H]3O)c(OC)c2)ccc1O | 18.6 µM | > 100 µM |
| COc1cc([C@H]2c3cc(O[C@@H]4O[C@H](CO)[C@@H](O)[C@H](O)[C@H]4O)c(OC)cc3C[C@@](O)(CO)[C@@H]2CO)ccc1O | 39.3 µM | > 100 µM |
| C/C=C1/[C@H](O[C@@H]2O[C@H](CO)[C@@H](O)[C@H](O)[C@H]2O)OC=C(C(=O)OC)[C@H]1CC(=O)OC[C@H]1O[C@@H](O[C@@H]2OC=C(C(=O)OC)[C@@H](CC(=O)OCCc3ccc(O)c(O)c3)/C2=C\C)[C@H](O)[C@@H](O)[C@@H]1O [JASPOLYOSIDE] | 4.97 µM | > 100 µM |
| COc1cc([C@H]2OC[C@H]3[C@@H]2CO[C@@H]3c2cc(OC)c(O[C@@H]3O[C@H](CO)[C@@H](O)[C@H](O)[C@H]3O)c(OC)c2)cc(OC)c1O[C@H]1O[C@@H](CO)[C@H](O)[C@@H](O)[C@@H]1O [LIRIODENDRTACHIOSIDE] | 16 µM | > 100 µM |
| OC[C@H]1O[C@@H](OCCc2ccc(O)cc2)[C@H](O)[C@@H](O)[C@@H]1O [SALIDROSIDE] | > 100 µM | > 100 µM |
| COc1cc(/C=C/C=O)cc(OC)c1O[C@@H]1O[C@H](CO)[C@@H](O)[C@H](O)[C@H]1O [SINAPALDEHYDE GLUCOSIDE] | > 100 µM | > 100 µM |
| COc1cc(/C=C/CO)cc(OC)c1O[C@@H]1O[C@H](CO)[C@@H](O)[C@H](O)[C@H]1O [SYRINGIN] | 70.9 µM | > 100 µM |

The remaining lines, values ahead:

| EC50 [1] | EC50 [2] | SMILES |
| --- | --- | --- |
| > 100 µM | > 100 µM | COc1cc([C@H]2OC[C@H]3[C@@H]2CO[C@@H]3c2cc(OC)c(O[C@@H]3O[C@H](CO)[C@@H](O)[C@H](O)[C@H]3O)c(OC)c2)cc(OC)c1O |
| 4.97 µM | 33 µM | OC[C@H]1O[C@@H](OCCc2ccc(O)c(O)c2)[C@H](O)[C@@H](O)[C@@H]1O |
| > 100 µM | > 100 µM | COc1cc(C[C@]2(O)CO[C@@H](c3ccc(O[C@H]4O[C@@H](CO)[C@H](O)[C@@H](O)[C@@H]4O)c(OC)c3)[C@@H]2CO)ccc1O |
| 25.3 µM | > 100 µM | COc1cc([C@@H]2OC[C@@](O)(Cc3ccc(O[C@@H]4O[C@H](CO)[C@@H](O)[C@H](O)[C@H]4O)c(OC)c3)[C@H]2CO)ccc1O |
| 10.6 µM | > 100 µM | COc1cc(C[C@@H]2CO[C@@H](c3cc(OC)c(O)c(OC)c3)[C@@H]2CO)ccc1O[C@@H]1O[C@H](CO)[C@@H](O)[C@H](O)[C@H]1O [ARMANDISIDE] |
| > 100 µM | > 100 µM | COc1cc(/C=C/C=O)ccc1O[C@@H]1O[C@H](CO)[C@@H](O)[C@H](O)[C@H]1O [CONIFERYALDEHYDE GLUCOSIDE] |
| 14.1 µM | > 100 µM | COc1cc(/C=C/CO[C@H]2O[C@@H](CO)[C@H](O)[C@@H](O)[C@@H]2O)cc(OC)c1O[C@@H]1O[C@H](CO)[C@@H](O)[C@H](O)[C@H]1O [ISOSYRINGINOSIDE] |
| > 100 µM | > 100 µM | C/C=C1/[C@H](O[C@@H]2O[C@H](CO)[C@@H](O)[C@H](O)[C@H]2O)OC=C(C(=O)OC)[C@H]1CC(=O)OCCc1ccc(O)cc1 [LIGSTROSIDE] |
| 2.57 µM | 20.8 µM | C/C=C1/[C@H](O[C@@H]2O[C@H](CO)[C@@H](O)[C@H](O)[C@H]2O)OC=C(C(=O)OC)[C@H]1CC(=O)OCCc1ccc(O)c(O)c1 [OLEUROPEIN] |
| 64.1 µM | > 100 µM | C/C=C1/[C@H](O[C@@H]2O[C@H](CO)[C@@H](O)[C@H](O)[C@H]2O)OC=C(C(=O)OC)[C@H]1CC(=O)OC[C@H]1O[C@@H](Oc2c(OC)cc(/C=C/CO)cc2OC)[C@H](O)[C@@H](O)[C@@H]1O [RETICULOSIDE] |
